Reference: ChEMBL document CHEMBL5376004, “Discovery and Development of Quinazolinones and Quinazolinediones for Ameliorating Nonalcoholic Fatty Liver Disease (NAFLD) by Modulating COP1-ATGL Axis” (J Med Chem, 2023)
In brackets after ≈: the same amount, converted by molar mass. Activity calls are given as the source filed them. No cut-off for these calls is given here.

Experiments:
[1] = molecular target: COP1-AGTL (Homo sapiens) (UniProt Q96AD5+Q8NHY2); assay: Induction of COP1 to ATGL stabilization (unknown origin) expressed in HEK293-A cells assessed as reduction in ATGL ubiquitination incubated for 6 hrs by Western blotting analysis; format: cell-based
[2] = Lipophilicity, logD of compound; format: physicochemical; details: octanol/water
[3] = Aqueous solubility of compound at pH 7.4; format: physicochemical
[4] = Stability in mouse plasma assessed as compound remaining after 2 hrs; format: ADME, cell-free; details: read-out: Stability
[5] = Stability in human plasma assessed as compound remaining after 2 hrs; format: ADME, cell-free; details: read-out: Stability
[6] = Metabolic stability in mouse liver microsomes assessed as intrinsic clearance per mg of protein; format: ADME, Microsome; details: read-out: CLH
[7] = Metabolic stability in mouse liver microsomes assessed as half life; format: ADME, Microsome
[8] = Metabolic stability in mouse liver microsomes assessed as hepatic blood flow; format: ADME, Microsome; details: read-out: QH
[9] = Metabolic stability in human liver microsomes assessed as intrinsic clearance per mg of protein; format: ADME, Microsome; details: read-out: CLH
[10] = Metabolic stability in human liver microsomes assessed as half life; format: ADME, Microsome
[11] = Metabolic stability in human liver microsomes assessed as hepatic blood flow; format: ADME, Microsome; details: read-out: QH
[12] = system: Hepatocyte; assay: Upregulation of ATGL protein level in mouse primary hepatocytes incubated for 24 hrs by Western blotting analysis; format: functional, cell-based; details: dose 10-500 nM
[13] = species: Mus musculus; assay: Upregulation of ATGL protein level in mouse primary adipose tissue incubated for 24 hrs by Western blotting analysis; format: functional, tissue-based; details: dose 100-1000 nM
[14] = system: HepG2; assay: Reduction in lipid droplets in human HepG2 cells by […] staining based confocal microscopic analysis; format: functional, cell-based
[15] = molecular target: T1, Patatin-like phospholipase domain-containing protein 2 (Homo sapiens) (UniProt Q96AD5); assay: Inhibition of ATGL ubiquitination (unknown origin) expressed in HEK293-A cells incubated for 6 hrs by Western blotting analysis; format: cell-based
T1 sequence (whole entry): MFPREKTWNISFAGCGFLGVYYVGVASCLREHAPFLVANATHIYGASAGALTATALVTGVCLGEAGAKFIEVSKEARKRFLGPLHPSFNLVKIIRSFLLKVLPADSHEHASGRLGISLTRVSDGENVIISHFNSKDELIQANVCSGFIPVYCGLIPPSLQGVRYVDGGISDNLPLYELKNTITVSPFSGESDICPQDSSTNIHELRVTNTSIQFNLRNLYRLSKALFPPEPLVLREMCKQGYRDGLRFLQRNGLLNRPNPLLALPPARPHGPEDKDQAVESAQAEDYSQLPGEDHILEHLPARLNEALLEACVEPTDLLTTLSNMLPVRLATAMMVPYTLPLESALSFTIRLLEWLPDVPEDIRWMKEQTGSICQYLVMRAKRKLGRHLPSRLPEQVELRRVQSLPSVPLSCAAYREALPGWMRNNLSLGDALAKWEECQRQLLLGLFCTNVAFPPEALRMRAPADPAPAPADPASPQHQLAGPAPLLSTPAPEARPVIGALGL

[16] = system: HepG2; assay: Effect on ATGL mRNA level in human HepG2 cells at 50 to 5000 nM after 24 hrs by RT-qPCR analysis; format: functional, cell-based; details: dose 50-5000 nM
[17] = system: HepG2; assay: Effect on COP1 in human HepG2 cells assessed as change in c-Jun level at 10 to 500 nM by RT-qPCR analysis; format: functional, cell-based; details: dose 10-500 nM
[18] = system: HepG2; assay: Effect on COP1 in human HepG2 cells assessed as change in p53 level at 10 to 500 nM by RT-qPCR analysis; format: functional, cell-based; details: dose 10-500 nM
[19] = system: HepG2; assay: Cytotoxicity against human HepG2 cells upto 5 uM incubated for 24 hrs by MTT assay; format: toxicity, cell-based; details: hepg2, 24 h
[20] = system: Mus musculus; assay: Upregulation of ATGL expression level in C57BL/6 mouse liver at 80 mg/kg, po administered for 7 days; format: functional, organism-based; details: time 7.0 day
[21] = system: Mus musculus; assay: Upregulation of COP1 expression level in C57BL/6 mouse liver at 80 mg/kg, po administered for 7 days; format: functional, organism-based; details: time 7.0 day
[22] = system: Mus musculus; assay: Upregulation of ATGL expression level in C57BL/6 mouse adipose tissue at 80 mg/kg, po administered for 7 days; format: functional, organism-based; details: time 7.0 day
[23] = system: Mus musculus; assay: Upregulation of COP1 expression level in C57BL/6 mouse adipose tissue at 80 mg/kg, po administered for 7 days; format: functional, organism-based; details: time 7.0 day
[24] = system: Mus musculus; assay: Anti-NASH activity in high-fat diet induced nonalcoholic steatohepatitis C57BL/6 mouse assessed as appearance of darker liver at 80 mg/kg, po administered for 1 month; format: functional, organism-based; details: time 1.0 months
[25] = system: Mus musculus; assay: Anti-NASH activity in high-fat diet induced nonalcoholic steatohepatitis C57BL/6 mouse assessed as reduction in liver size at 80 mg/kg, po administered for 1 month; format: functional, organism-based; details: time 1.0 months
[26] = system: Mus musculus; assay: Anti-NASH activity in high-fat diet induced nonalcoholic steatohepatitis C57BL/6 mouse assessed as reduction in body weight at 80 mg/kg, po administered for 1 month; format: functional, organism-based; details: time 1.0 months
[27] = system: Mus musculus; assay: Anti-NASH activity in high-fat diet induced nonalcoholic steatohepatitis C57BL/6 mouse assessed as reduction in liver weight at 80 mg/kg, po administered for 1 month; format: functional, organism-based; details: time 1.0 months
[28] = system: Mus musculus; assay: Anti-NASH activity in high-fat diet induced nonalcoholic steatohepatitis C57BL/6 mouse assessed as reduction in liver triglyceride level at 80 mg/kg, po administered for 1 month; format: functional, organism-based; details: time 1.0 months
[29] = system: Mus musculus; assay: Anti-NASH activity in high-fat diet induced nonalcoholic steatohepatitis C57BL/6 mouse assessed as reduction in accumulation of fat droplets at 80 mg/kg, po administered for 1 month by H and E staining based assay; format: functional, organism-based; details: time 1.0 months
[30] = system: Mus musculus; assay: Anti-NASH activity in high-fat diet induced nonalcoholic steatohepatitis C57BL/6 mouse assessed as reduction in liver collagen fiber content at 80 mg/kg, po administered for 1 month by sirius red staining based assay; format: functional, organism-based; details: time 1.0 months
[31] = Toxicity in C57BL/6 mouse assessed as change in liver morphology by H and E staining based histological analysis; format: tissue-based; details: in vivo
[32] = Toxicity in C57BL/6 mouse assessed as change in lung morphology by H and E staining based histological analysis; format: tissue-based; details: in vivo
[33] = Toxicity in C57BL/6 mouse assessed as change in kidney morphology by H and E staining based histological analysis; details: in vivo
[34] = Toxicity in C57BL/6 mouse assessed as inflammatory infiltration; details: in vivo
[35] = Toxicity in C57BL/6 mouse assessed as change in kidney tubular structure; format: tissue-based; details: in vivo
[36] = molecular target: T1, Patatin-like phospholipase domain-containing protein 2 (Homo sapiens); assay: Inhibition of ATGL ubiquitination in human HepG2 cells preincubated for 20 hrs followed by MG132 addition and measured after 4 hrs by immunoprecipitation method; format: cell-based; details: time 24.0 hrs
[37] = molecular target: E3 ubiquitin-protein ligase COP1 (Homo sapiens) (UniProt Q8NHY2); assay: Inhibition of COP1 auto-ubiquitination in human HepG2 cells preincubated for 20 hrs followed by MG132 addition and measured after 4 hrs by immunoprecipitation method; format: cell-based; details: time 24.0 hrs
[38] = system: HepG2; assay: Reduction in lipid droplets in human HepG2 cells at 100 nM incubated for 24 hrs by Hoechst 33342 staining based confocal microscopic analysis; format: functional, cell-based
[39] = system: Hepatocyte; assay: Reduction in lipid droplets in oleate induced mouse primary hepatocytes at 100 nM by BODIPY493/503 staining based confocal microscopic analysis; format: functional, cell-based

COP1-AGTL (Homo sapiens), sequence (Q8NHY2 whole entry, looked up, one chain of several): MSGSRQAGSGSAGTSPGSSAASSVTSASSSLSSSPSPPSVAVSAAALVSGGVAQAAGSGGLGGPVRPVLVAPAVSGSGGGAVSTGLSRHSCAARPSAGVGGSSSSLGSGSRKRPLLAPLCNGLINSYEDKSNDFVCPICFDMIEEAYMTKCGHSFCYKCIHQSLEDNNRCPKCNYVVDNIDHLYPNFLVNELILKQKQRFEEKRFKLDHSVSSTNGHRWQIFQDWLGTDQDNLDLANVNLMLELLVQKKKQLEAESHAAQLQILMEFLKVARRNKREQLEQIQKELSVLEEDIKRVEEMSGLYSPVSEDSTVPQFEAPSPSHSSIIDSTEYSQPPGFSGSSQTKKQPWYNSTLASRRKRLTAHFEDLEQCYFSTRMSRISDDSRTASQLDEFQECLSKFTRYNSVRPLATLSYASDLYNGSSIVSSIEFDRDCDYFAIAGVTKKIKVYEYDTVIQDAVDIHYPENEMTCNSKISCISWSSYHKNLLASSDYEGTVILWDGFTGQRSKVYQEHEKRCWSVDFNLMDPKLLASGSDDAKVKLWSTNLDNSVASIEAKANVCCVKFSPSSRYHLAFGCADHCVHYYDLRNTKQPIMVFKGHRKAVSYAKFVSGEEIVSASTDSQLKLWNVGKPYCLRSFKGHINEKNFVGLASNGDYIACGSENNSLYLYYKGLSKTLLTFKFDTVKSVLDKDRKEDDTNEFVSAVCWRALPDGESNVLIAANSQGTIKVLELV
E3 ubiquitin-protein ligase COP1 (Homo sapiens), sequence (Q8NHY2 whole entry): as the sequence (Q8NHY2 whole entry, looked up, one chain of several) above

| Compound | Activity [1] | logD [2] | solubility [3] [µg/mL] | remaining at 2 h [4] [%] | remaining at 2 h [5] [%] | microsomal CLint [6] [µL/min/mg] | half-life [7] [min] | hepatic extraction ratio [8] | microsomal CLint [9] [µL/min/mg] | half-life [10] [min] | hepatic extraction ratio [11] | Activity [12] | Activity [13] | Activity [14] | inhibition [15] | Activity [16] | Activity [17] | Activity [18] | Activity [19] | Activity [20] | further results |
| --- | --- | --- | --- | --- | --- | --- | --- | --- | --- | --- | --- | --- | --- | --- | --- | --- | --- | --- | --- | --- | --- |
| COCCn1cnc2ccc(NC(=O)Nc3cccc(C(C)=O)c3)cc2c1=O | Active | 2.38 | 2.56 (≈ 6.73 µM) | 14.2 | 16.9 | 8.15 | 87 | 0.181 | 5.84 | 119 | 0.213 | Dose-Dependent Effect | inactive | Active | Active | inactive | inactive | inactive | Non-Toxic | Active | Activity [21]: Active; Activity [22]: inactive; Activity [23]: inactive; Activity [24]: Active; Activity [25]: Active; Activity [26]: Active; Activity [27]: Active; Activity [28]: Active; Activity [29]: Active; Activity [30]: Active; Activity [31]: Non-Toxic; Activity [32]: Non-Toxic; Activity [33]: Non-Toxic; Activity [34]: Non-Toxic; Activity [35]: Non-Toxic |
| COCCn1c(=O)c2cc(NC(=O)Nc3cccc(C(C)=O)c3)ccc2n(CCN2CCCCC2)c1=O | Active | 2.78 | 116 (≈ 228 µM) | 103 | 110 | 56.2 | 12.3 | 0.605 | 28.3 | 24.5 | 0.567 | Dose-Dependent Effect | inactive | Active | Active | inactive | inactive | inactive | Non-Toxic | Active | inhibition [36]: Active; inhibition [37]: Active; Activity [38]: Active; Activity [39]: Active; Activity [21]: Active; Activity [22]: inactive; Activity [23]: inactive; Activity [24]: Active; Activity [25]: Active; Activity [26]: Active; Activity [27]: Active; Activity [28]: Active; Activity [29]: Active; Activity [30]: Active; Activity [31]: Non-Toxic; Activity [32]: Non-Toxic; Activity [33]: Non-Toxic; Activity [34]: Non-Toxic; Activity [35]: Non-Toxic |
